Assay results published in the NIST ThermoML archive (doi:10.1016/j.fluid.2016.04.012).
Numbers after ± are expanded uncertainties.

Details: Liquid, Closed cell (Static) method

Row | vapor or sublimation pressure (337.85 K) | vapor or sublimation pressure (338.65 K) | SMILES
1 | 101.3 ± 1.1 kPa | – | CO [methanol]
2 | – | 101.3 ± 1.1 kPa | C1CCOC1 [tetrahydrofuran]
